Results: PubChem BioAssay (NCI)
Several values for one entry are separate records, joined by “and”; a condition that tells them apart may be missing. Identical values can stand only once.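 Cells were grown in 96-well plates and exposed to each compound for 48 hours at five concentrations; endpoints were interpolated linearly between bracketing concentrations, or set to the highest concentration if not reached. GI50 = concentration required for 50% inhibition of growth. At the TGI there is no net growth.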

Tests used:
Assay in all cases: NCI-60 cell line screen, 48 h
[1] = tested on: COLO 205 colon
[2] = tested on: SNB-19 CNS
[3] = tested on: HS 578T breast
[4] = tested on: HCT-15 colon
[5] = tested on: OVCAR-8 ovarian
[6] = tested on: OVCAR-5 ovarian
[7] = tested on: HL-60(TB) leukemia
[8] = tested on: NCI-H226 lung
[9] = tested on: SW-620 colon
[10] = tested on: NCI-H522 lung

SMILES	GI50 [1]	TGI [1]	GI50 [2]	TGI [2]	GI50 [3]	TGI [3]	GI50 [4]	TGI [4]	GI50 [5]	TGI [5]	GI50 [6]	TGI [6]	GI50 [7]	TGI [7]	GI50 [8]	TGI [8]	GI50 [9]	TGI [9]	GI50 [10]	TGI [10]
COc1ccc(Nc2nc(NCc3ccccc3)c3ccccc3n2)cc1	1860 nM	3330 nM	9720 nM	24100 nM	10900 nM	30500 nM	3690 nM	19000 nM	2170 nM	5150 nM	10100 nM	28000 nM	2040 nM	4200 nM	11500 nM	37100 nM	2820 nM	10400 nM	3660 nM	16100 nM
CCNC(=O)Nc1ccc(-c2nc3c(c(N4CCOC[C@@H]4C)n2)CCN(C2COC2)C3)cc1	289 nM and 268 nM	> 100000 nM	303 nM and 450 nM	> 21600 nM	155 nM and 146 nM	804 nM and 930 nM	638 nM and 450 nM	> 100000 nM	460 nM and 534 nM	> 100000 nM	302 nM and 384 nM	> 37100 nM	7440 nM and 4610 nM	> 100000 nM	247 nM and 119 nM	–	793 nM and 610 nM	> 100000 nM	181 nM and 159 nM	> 24200 nM and 6180 nM
O=S(=O)(c1ccc2c(c1)C(=NO)c1cc(S(=O)(=O)N3CCCCC3)ccc1-2)N1CCCCC1	> 1000 nM and 194 nM	> 1000 nM and 363 nM	303 nM and 184 nM	962 nM and 326 nM	240 nM and 198 nM	772 nM and 480 nM	914 nM and 173 nM	> 1000 nM and 323 nM	306 nM and 90.4 nM	842 nM and 281 nM	153 nM and 151 nM	315 nM and 293 nM	107 nM and 189 nM	326 nM and 549 nM	292 nM and 106 nM	936 nM and 298 nM	197 nM and 74.3 nM	437 nM and 174 nM	> 1000 nM and 107 nM	> 1000 nM and 252 nM
COc1ccc(C2=C(Br)C(=O)OC2)cc1Cl	832 nM	> 30900 nM	10600 nM	> 100000 nM	41200 nM	> 88500 nM	19400 nM	> 55100 nM	20200 nM	> 52700 nM	51200 nM	> 100000 nM	42800 nM	> 100000 nM	25000 nM	62700 nM	32200 nM	> 100000 nM	37800 nM	> 100000 nM
NC(=O)Cc1ccccc1Oc1nccc(-c2c(-c3ccc(F)cc3)ncn2C2CCNCC2)n1	> 25000 nM	> 25000 nM	> 25000 nM	> 25000 nM	> 9240 nM	> 25000 nM	> 25000 nM	> 25000 nM	> 25000 nM	> 25000 nM	> 25000 nM	> 25000 nM	> 25000 nM	> 25000 nM	> 25000 nM	> 25000 nM	> 25000 nM	> 25000 nM	> 25000 nM	> 25000 nM
COc1cc(-c2nn(C)nc2-c2cc3ccccc3s2)cc(OC)c1OC	82 nM	515 nM	254 nM	> 100000 nM	270 nM	> 100000 nM	58.7 nM	> 100000 nM	352 nM	> 100000 nM	2390 nM	> 100000 nM	48.8 nM	1070 nM	> 100000 nM	> 100000 nM	63.3 nM	> 100000 nM	23.2 nM	78.7 nM
